Four compounds from PMC7191901, “Hybrid inhibitors of DNA and HDACs remarkably enhance cytotoxicity in leukaemia cells” (Journal of Enzyme Inhibition and Medicinal Chemistry, 2020) can be followed below.

The test system of one test is MCF-7 cells. Nature of the test: Cell proliferation (MTS) assay, MCF-7. As to conditions: Homo sapiens, MCF7, 72 h, read-out: GI50 values, MCF-7. It counts as cell-based.
Test [1] has as its system PARP, caspase 3, and caspase 8. It counts as cell-based, human.
The subject of test [2] is Ac-α-tubulin and Ac-histone H3. It counts as cell-based, human.
The subject of test [3] is HL-60 cells. It counts as cell-based, human.
The subject of test [4] is HL-60 cells. It counts as cell-based, human. This is another data set of the same source.
The subject of test [5] is HL-60 cells. Nature of the test: Cell proliferation (MTS) assay, HL-60. The class given is cell-based. As to conditions: Homo sapiens, read-out: GI50 values, HL-60.
For the next test, the system named is U266 cells. Nature of the test: cells. As to conditions: Homo sapiens, U-266, 72 h, read-out: GI50, U266. The class given is cell-based.
The next test concerns MCF-7/ADR cells. Put plainly: cells. It counts as cell-based. As to conditions: Homo sapiens, NCI/ADR-RES, 72 h, read-out: GI50, MCF-7/ADR.
The next test relates to A2780 cells. Put plainly: Cell proliferation (MTS) assay, A2780. As to conditions: Homo sapiens, read-out: GI50 values, A2780. The class given is cell-based.
The next test concerns H1975 cells. Nature of the test: cells. It counts as cell-based. As to conditions: Homo sapiens, NCI-H1975, 72 h, read-out: GI50, H1975.
For the next test, the system named is MDA-MB-231 cells. Nature of the test: Cell proliferation (MTS) assay, MDA-MB-231. It counts as cell-based. As to conditions: Homo sapiens, read-out: GI50 values, MDA-MB-231.
The next test deals with U-937 cells. Put plainly: Cell proliferation (MTS) assay, U-937. The class given is cell-based. As to conditions: Homo sapiens, read-out: GI50 values, U-937.
A further test has as its system A549 cells. Nature of the test: cells. To be noted: Homo sapiens, A549, 72 h, read-out: GI50, A549. It counts as cell-based.
Setting [6] is: HL-60, 3 days (72 h), MTS assay.
The mark [7] stands for this setting: A2780, 3 days (72 h), MTS assay.
Where [8] appears, read: MDA-MB-231, 3 days (72 h), MTS assay.
Setting [9] is: U-937, 3 days (72 h), MTS assay.

Entries after “also recorded” stand apart in the source; their conditions may differ. Like-named read-outs stand apart in the source and are kept apart here.

`O=C(O)CCCc1ccc(N(CCCl)CCCl)cc1` [Chlorambucil]: the GI50 in the test on MCF-7 cells was 393 µM; in the test with HL-60 cells [5] (HL-60, 72 h), 21.1 µM; in the test with U266 cells, above 100 µM; with MCF-7/ADR cells, above 100 µM; in the test with A2780 cells (A2780, 72 h), above 100 µM; in the test with H1975 cells, above 100 µM. The GI50 in the test on MDA-MB-231 cells (MDA-MB-231, 72 h) is above 100 µM; with U-937 cells (U-937, 72 h) it was 37.7 µM; with A549 cells, above 100 µM. Besides, the “concentration required to induce the cleavage of PARP, caspase 3, and caspase 8” value in test [1] is given as 30 µM. Moreover, the “acetylation of α-tubulin and histone H3” value in test [2] is “failed to induce the acetylation of α-tubulin and histone H3; also recorded: little acetylation of α-tubulin and histone H3”. Besides, the “% DNA content in the tail” value in the test on HL-60 cells [3] came out at 2.1%. This compound also yielded a G2/M fraction with HL-60 cells [4] of 32.2%.
Regarding `CCN(CC)c1ccc(CCCC(=O)NO)cc1` [Compound 8a, 4–(4-(Diethylamino)phenyl)-N-hydroxybutanamide], the GI50 with MCF-7 cells (3 days, MTS assay) is 282 µM; with HL-60 cells [5] (setting [6]) it was 70.3 µM; with A2780 cells (setting [7]) it was 81 µM; in the test with MDA-MB-231 cells (setting [8]) it was 85.1 µM; in the test on U-937 cells (setting [9]), above 100 µM.
For `Nc1ccc(CCCC(=O)NO)cc1` [Compound 7, 4–(4-Aminophenyl)-N-hydroxybutanamide] the same measures were 393 µM, 60.5 µM, above 100 µM, above 100 µM and 93 µM.
For `CCCN(CCC)c1ccc(CCCC(=O)NO)cc1` [Compound 8b, 4–(4-(Dipropylamino)phenyl)-N-hydroxybutanamide] the same measures were 37.8 µM, 34.4 µM, 7.79 µM, 66.8 µM and 40.2 µM.
